These results are taken from US8410302B2, “Methoxyimino compounds and fungicide composition comprising same” (Kyung Nong Corporation, priority 2007, dated 2013).

For assay [1], the system named is Pyricularia oryzae Carvara KA301. In words: whole plant or invertebrate. It is filed as in vivo. The following applies: Pyricularia oryzae, read-out: RCB control value (C.V.).
A further assay concerns Botrytis cinerae. In words: Fungicidal activity against cucumber gray mold rot (CGM) disease, control value. The format is in vivo. The following applies: Botrytis; 100 ppm, cucumber gray mold rot; read-out: CGM control value (C.V.).
The test system of the next assay is Phytophthora infestans. Put plainly: whole plant or invertebrate. The format is in vivo. The following applies: Phytophthora infestans, in Solanum lycopersicum, read-out: TLB control value (C.V.).
The next assay deals with Puccinia recondita. Put plainly: Fungicidal activity against wheat leaf rust (WLR) disease, control value. It is filed as in vivo. Conditions: wheat leaf rust, read-out: WLR control value (C.V.).
For the next assay, the system named is Erysiphae graminis. In words: Fungicidal activity against barley powdery mildew (BPM) disease, control value. Conditions: Hordeum vulgare, 168 h, barley powdery mildew, read-out: BPM control value (C.V.). The format is in vivo.
In the next assay the test system is Rhizoctonia solani AG-1. Put plainly: Fungicidal activity against rice sheath blight (RSB) disease, control value. The following applies: Rhizoctonia solani, AG1, in Oryza sativa, read-out: RSB control value (C.V.).

As for `CO/N=C(/C(=O)OC)c1ccccc1COc1cccc(C=C(Cl)Cl)c1Cl` [Example 43, methyl-(E)-2-(2-((2-chloro-3-(2,2-dichlorovinyl)phenoxy)methyl)phenyl)-2-methoxyiminoacetate], the pest or weed control at 2 ppm was 90% in assay [1]; 100% in the assay with Phytophthora infestans; 100% with Puccinia recondita; 100% in the assay with Erysiphae graminis; 90% in the assay on Rhizoctonia solani AG-1. Also, the pest or weed control at 10 ppm was determined as 99% in assay [1]; 100% with Phytophthora infestans; 100% with Puccinia recondita; 100% with Erysiphae graminis; 100% with Rhizoctonia solani AG-1. In addition, the pest or weed control at 50 ppm (in assay [1]; with Phytophthora infestans; in the assay on Puccinia recondita; in the assay on Erysiphae graminis; in the assay on Rhizoctonia solani AG-1) was 100% in each case. Further, the pest or weed control at 100 ppm stood at 100% in assay [1]; 0% in the assay on Botrytis cinerae; 100% with Phytophthora infestans; 100% in the assay with Puccinia recondita; 100% in the assay on Erysiphae graminis; 100% in the assay with Rhizoctonia solani AG-1.
As for `CNC(=O)/C(=N/OC)c1ccccc1COc1cccc(C=C(Cl)Cl)c1Cl` [Example 44, (E)-2-(2-((2-chloro-3-(2,2-dichlorovinyl)phenoxy)methyl)phenyl)-2-methoxyimino-N-methylacetamide], the pest or weed control at 2 ppm is 100% in assay [1]; 95% in the assay on Phytophthora infestans; 100% with Puccinia recondita; 100% in the assay on Erysiphae graminis; 90% in the assay with Rhizoctonia solani AG-1. Further, the pest or weed control at 10 ppm (in assay [1]; in the assay on Phytophthora infestans; in the assay with Puccinia recondita; in the assay on Erysiphae graminis; in the assay on Rhizoctonia solani AG-1) was 100% throughout. For the same molecule, the pest or weed control at 50 ppm (in assay [1]; in the assay on Phytophthora infestans; in the assay with Puccinia recondita; with Erysiphae graminis; in the assay with Rhizoctonia solani AG-1) was 100% in each case. The pest or weed control at 100 ppm in assay [1] amounted to 100%; in the assay with Botrytis cinerae it was 10%; in the assay on Phytophthora infestans it was 100%; with Puccinia recondita, 100%; in the assay on Erysiphae graminis, 100%; with Rhizoctonia solani AG-1 it was 100%.
Consider `CO/N=C(/C(=O)OC)c1ccccc1COc1ccc(C)cc1C=C(Cl)Cl` [Example 45, methyl-(E)-2-(2-((2-(2,2-dichlorovinyl)-4-methylphenoxy)methyl)phenyl)-2-methoxyiminoacetate], for which the pest or weed control at 2 ppm in assay [1] turned out to be 100%; in the assay with Phytophthora infestans, 92%; in the assay on Puccinia recondita, 100%; with Erysiphae graminis, 100%; with Rhizoctonia solani AG-1 it was 100%. Also, the pest or weed control at 10 ppm in assay [1] is 100%; in the assay with Phytophthora infestans it was 98%; with Puccinia recondita, 100%; with Erysiphae graminis it was 100%; in the assay on Rhizoctonia solani AG-1 it was 100%. Also, the pest or weed control at 50 ppm (in assay [1]; with Phytophthora infestans; with Puccinia recondita; in the assay on Erysiphae graminis; in the assay on Rhizoctonia solani AG-1) was 100% throughout. Besides, the pest or weed control at 100 ppm was 100% in assay [1]; 35% in the assay with Botrytis cinerae; 100% in the assay with Phytophthora infestans; 100% with Puccinia recondita; 100% in the assay on Erysiphae graminis; 100% with Rhizoctonia solani AG-1.
Take `CNC(=O)/C(=N/OC)c1ccccc1COc1ccc(C)cc1C=C(Cl)Cl` [Example 46, (E)-2-(2-((2-(2,2-dichlorovinyl)-4-methylphenoxy)methyl)phenyl)-2-methoxyimino-N-methylacetamide]: the pest or weed control at 2 ppm came out at 95% in assay [1]; 96% in the assay on Phytophthora infestans; 100% with Puccinia recondita; 100% in the assay with Erysiphae graminis; 98% in the assay on Rhizoctonia solani AG-1. Further, the pest or weed control at 10 ppm (in assay [1]; with Phytophthora infestans; with Puccinia recondita; in the assay on Erysiphae graminis; in the assay with Rhizoctonia solani AG-1) was 100% each time. In addition, the pest or weed control at 50 ppm (in assay [1]; in the assay on Phytophthora infestans; in the assay on Puccinia recondita; with Erysiphae graminis; with Rhizoctonia solani AG-1) was 100% throughout. Further, the pest or weed control at 100 ppm turned out to be 100% in assay [1]; 30% in the assay on Botrytis cinerae; 100% with Phytophthora infestans; 100% in the assay with Puccinia recondita; 100% in the assay with Erysiphae graminis; 100% with Rhizoctonia solani AG-1.
As for `CO/N=C(/C(=O)OC)c1ccccc1COc1cc(C=C(Cl)Cl)ccc1OC` [Example 47, methyl-(E)-2-(2-((5-(2,2-dichlorovinyl)-2-methoxyphenoxy)methyl)phenyl)-2-methoxyiminoacetate], the pest or weed control at 2 ppm came out at 80% in assay [1]; 85% in the assay with Phytophthora infestans; 100% in the assay on Puccinia recondita; 100% in the assay on Erysiphae graminis; 95% in the assay with Rhizoctonia solani AG-1. Besides, the pest or weed control at 10 ppm in assay [1] is 99%; in the assay with Phytophthora infestans it was 95%; with Puccinia recondita it was 100%; in the assay with Erysiphae graminis it was 100%; in the assay with Rhizoctonia solani AG-1, 100%. Further, the pest or weed control at 50 ppm (in assay [1]; in the assay with Phytophthora infestans; in the assay with Puccinia recondita; in the assay with Erysiphae graminis; with Rhizoctonia solani AG-1) was 100% throughout. The pest or weed control at 100 ppm stood at 100% in assay [1]; 55% with Botrytis cinerae; 100% in the assay on Phytophthora infestans; 100% in the assay on Puccinia recondita; 100% in the assay on Erysiphae graminis; 100% with Rhizoctonia solani AG-1.
`CNC(=O)/C(=N/OC)c1ccccc1COc1cc(C=C(Cl)Cl)ccc1OC` [Example 48, (E)-2-(2-((5-(2,2-dichlorovinyl)-2-methoxyphenoxy)methyl)phenyl)-2-methoxyimino-N-methylacetamide]: the pest or weed control at 2 ppm is 90% in assay [1]; 70% with Phytophthora infestans; 100% in the assay with Puccinia recondita; 99% in the assay on Erysiphae graminis; 95% in the assay on Rhizoctonia solani AG-1. The pest or weed control at 10 ppm in assay [1] is 100%; in the assay with Phytophthora infestans, 99%; in the assay with Puccinia recondita it was 100%; with Erysiphae graminis it was 100%; in the assay on Rhizoctonia solani AG-1, 98%. Besides, the pest or weed control at 50 ppm (in assay [1]; with Phytophthora infestans; in the assay on Puccinia recondita; in the assay with Erysiphae graminis; in the assay on Rhizoctonia solani AG-1) was 100% throughout. Also, the pest or weed control at 100 ppm in assay [1] amounted to 100%; in the assay with Botrytis cinerae, 50%; in the assay with Phytophthora infestans it was 100%; in the assay on Puccinia recondita, 100%; in the assay with Erysiphae graminis, 100%; in the assay on Rhizoctonia solani AG-1, 100%.
Regarding `CO/N=C(/C(=O)OC)c1ccccc1COc1c(C)cccc1C=C(Cl)Cl` [Example 49, methyl-(E)-2-(2-((2-(2,2-dichlorovinyl)-6-methylphenoxy)methyl)phenyl)-2-methoxyiminoacetate], the pest or weed control at 2 ppm came to 93% in assay [1]; 97% with Phytophthora infestans; 100% in the assay on Puccinia recondita; 100% in the assay on Erysiphae graminis; 95% in the assay with Rhizoctonia solani AG-1. For the same molecule, the pest or weed control at 10 ppm in assay [1] was 100%; with Phytophthora infestans, 99%; in the assay on Puccinia recondita, 100%; in the assay with Erysiphae graminis it was 100%; with Rhizoctonia solani AG-1, 98%. Also, the pest or weed control at 50 ppm (in assay [1]; with Phytophthora infestans; with Puccinia recondita; in the assay with Erysiphae graminis; in the assay on Rhizoctonia solani AG-1) was 100% throughout. Besides, the pest or weed control at 100 ppm stood at 100% in assay [1]; 30% with Botrytis cinerae; 100% with Phytophthora infestans; 100% in the assay with Puccinia recondita; 100% in the assay on Erysiphae graminis; 100% in the assay on Rhizoctonia solani AG-1.
